Experimental data reported in US20250339399A1, “SUPRAMOLECULAR SELF-ASSEMBLY SYSTEM” (Beijing Creatron Institute of Pharmaceutical Research Co., …, priority 2022, published 2025).
Where two headings read alike, the source gives them in different places.

Key:
[1] = Guest molecule concentration after incubation in initial medium without polymer (Comparative Example 1); assay type: physicochemical; settings: 37° C., 0.05% SDS in pH 6.8 phosphate buffer
Summary of the method: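 Dissolved guest content measured by HPLC of centrifuged supernatants (37° C., 13000 rpm, 5 min) sampled at 0.5 h, 3 h and 6 h. Incubation was polymer-free at 37° C.±0.5° C. in buffers of pH 2.0-7.4; nominal loading was set by maximum clinical dose.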

[2] = Binary supramolecular self-assembly systems of polymer and target: guest concentration over incubation time (Comparative Example 2); assay type: physicochemical; settings: for Concentration of guest molecule in solution / Times that of the initial medium: 6 h
Protocol: Experiments were conducted according to the steps in Comparative Example 1, and quantitative analysis was carried out using the analytical method for each target to investigate the regulation ability […] stacking.

[3] = Binary (carrier), ternary and quaternary supramolecular self-assembly systems of polymer, carrier building block and target: guest concentration over incubation time (Examples 1-56); assay type: physicochemical; settings: 6 h
Summary of the method: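 Targets were incubated at 37 °C in pH 2.0–7.4 buffers with 0.5% polymer alone or with carrier building blocks, after 0.5 h sonication for ternary systems, and shaken at 200 rpm. Samples at 0.5–6 h were centrifuged and diluted ≥10-fold, and dissolved target was quantified by HPLC; surfactant was added if needed.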

[4] = cited from earlier work
[5] = cited from earlier work; remark: listed apart in the source
[6] = human use, cited from earlier work
[7] = quaternary: 0.05% 314 + 0.25% 201
[8] = quaternary: 0.05% 314 + 0.25% 202
[9] = quaternary: 0.05% 314 + 0.25% 203
[10] = quaternary: 0.05% 314 + 0.25% 204
[11] = quaternary: 0.05% 314 + 0.25% 205

For `C=C(C)[C@@H]1CCC(C)=C[C@H]1c1c(O)cc(CCCCC)cc1O` [Cannabidiol], the “Concentration of guest molecule measured after different incubated time” value (“Concentration … after different incubated time” for short) ([1]; 0.5 h) was 11.4 µg/mL, the “Concentration … after different incubated time” value ([1]; 3 h) was 11.8 µg/mL and the “Concentration … after different incubated time” value ([1]; 6 h) was 8.5 µg/mL. The “Concentration of the target in the solution measured after different incubation time” value (“Concentration … after different incubation time” for short) ([2]; binary system with 0.5% polymer 101, incubation 0.5 h) was 282.6 µg/mL, the “Concentration … after different incubation time” value ([2]; binary system with 0.5% polymer 101, incubation 3 h) was 293.7 µg/mL and the “Concentration … after different incubation time” value ([2]; binary system with 0.5% polymer 101, incubation 6 h) was 342.5 µg/mL. For the same compound, the “Concentration … after different incubation time” value ([2]; binary system with 0.5% polymer 102, incubation 0.5 h) was 307.3 µg/mL, the “Concentration … after different incubation time” value ([2]; binary system with 0.5% polymer 102, incubation 3 h) was 323.6 µg/mL and the “Concentration … after different incubation time” value ([2]; binary system with 0.5% polymer 102, incubation 6 h) was 333.1 µg/mL. For the same compound, the “Concentration … after different incubation time” value ([2]; binary system with 0.5% polymer 103, incubation 0.5 h) was 54.8 µg/mL, the “Concentration … after different incubation time” value ([2]; binary system with 0.5% polymer 103, incubation 3 h) was 55.1 µg/mL and the “Concentration … after different incubation time” value ([2]; binary system with 0.5% polymer 103, incubation 6 h) was 55.7 µg/mL. The “Concentration … after different incubation time” value ([2]; binary system with 0.5% polymer 106, incubation 0.5 h) was 148.1 µg/mL, the “Concentration … after different incubation time” value ([2]; binary system with 0.5% polymer 106, incubation 3 h) was 149.4 µg/mL and the “Concentration … after different incubation time” value ([2]; binary system with 0.5% polymer 106, incubation 6 h) was 155.7 µg/mL. For the same compound, the “Concentration … after different incubation time” value ([2]; binary system with 0.5% polymer 107, incubation 0.5 h) was 109.6 µg/mL, the “Concentration … after different incubation time” value ([2]; binary system with 0.5% polymer 107, incubation 3 h) was 97.2 µg/mL and the “Concentration … after different incubation time” value ([2]; binary system with 0.5% polymer 107, incubation 6 h) was 95.7 µg/mL. For the same compound, the “Concentration … after different incubation time” value ([2]; binary system with 0.5% polymer 110, incubation 0.5 h) was 168.9 µg/mL, the “Concentration … after different incubation time” value ([2]; binary system with 0.5% polymer 110, incubation 3 h) was 8.6 µg/mL and the “Concentration … after different incubation time” value ([2]; binary system with 0.5% polymer 110, incubation 6 h) was 7.3 µg/mL. The “Concentration of guest molecule in solution” value (“Concentration … in solution” below) ([2]; binary: 0.25% 101) was 342.5 µg/mL, the “Times that of the initial medium” value ([2]; binary: 0.25% 101) was 40 times and the “Concentration … in solution” value ([2]; binary: 0.25% 103E3) was 55.7 µg/mL. For the same compound, the “Concentration … in solution” value ([2]; binary: 0.25% 106 (K30)) was 155.7 µg/mL, the “Times that of the initial medium” value ([2]; binary: 0.25% 106 (K30)) was 18 times and the “Concentration … in solution” value [3, 7] was 732.2 µg/mL. For the same compound, the “Times that of the initial medium” value [3, 7] was 86 times, the “Concentration … in solution” value [3, 8] was 399.4 µg/mL and the “Times that of the initial medium” value [3, 8] was 47 times. For the same compound, the “Concentration … in solution” value [3, 9] was 648.3 µg/mL, the “Times that of the initial medium” value [3, 9] was 76 times and the “Concentration … in solution” value [3, 10] was 725.0 µg/mL. The “Times that of the initial medium” value [3, 10] was 85 times, the “Concentration … in solution” value [3, 11] was 581.7 µg/mL and the “Times that of the initial medium” value [3, 11] was 68 times. For the same compound, the “Concentration … in solution” value ([3]; ternary: 102M + 0.1% 310) was 580.1 µg/mL, the “Concentration … in solution” value ([3]; ternary: 102M + 0.25% 310) was 481.2 µg/mL and the “Concentration in the system” value ([4]; 200 mM methyl-beta-cyclodextrin, literature) was 25500 µg/mL. For the same compound, the “Best result reported by the literature (concentration)” value ([4]; International Journal of Pharmaceutics 589 (2020) 119812) was 150 µg/mL, the “Concentration in the system” value ([4]; about 5-10 mM methyl-beta-cyclodextrin, literature curve) was “lower than 1 mg/mL” and the “LogD7.4 or Log P” value [5] was 6.32.

For `C=C1C[C@@]23CC[C@H]4[C@@](C)(CCC[C@@]4(C)C(=O)O[C@@H]4O[C@H](CO)[C@@H](O)[C@H](O[C@@H]5O[C@H](CO)[C@@H](O)[C@H](O)[C@H]5O)[C@H]4O[C@@H]4O[C@H](CO)[C@@H](O)[C@H](O)[C@H]4O)[C@@H]2CC[C@]1(O[C@@H]1O[C@H](CO)[C@@H](O)[C@H](O[C@@H]2O[C@H](CO)[C@@H](O)[C@H](O)[C@H]2O)[C@H]1OC1O[C@H](CO)[C@@H](O)[C@H](O)[C@H]1O)C3` (some centres unmarked) [compound 321, Rebaudioside M], the “Acceptable daily intake (ADI)” value ([6]; bw: body weight) is listed as 4 mg/kg bw/day.

For `C=C1C[C@@]23CC[C@H]4[C@@](C)(CCC[C@@]4(C)C(=O)O[C@@H]4O[C@H](CO)[C@@H](O)[C@H](O)[C@H]4O[C@@H]4O[C@H](CO)[C@@H](O)[C@H](O)[C@H]4O)[C@@H]2CC[C@]1(O[C@@H]1O[C@H](CO)[C@@H](O)[C@H](O[C@@H]2O[C@H](CO)[C@@H](O)[C@H](O)[C@H]2O)[C@H]1OC1O[C@H](CO)[C@@H](O)[C@H](O)[C@H]1O)C3` (some centres unmarked) [compound 320, Rebaudioside D], the “Acceptable daily intake (ADI)” value ([6]; bw: body weight) is listed as 3-5 mg/kg bw/day.

For `C=C1C[C@@]23CC[C@H]4[C@@](C)(CCC[C@@]4(C)C(=O)O[C@@H]4O[C@H](CO)[C@@H](O)[C@H](O)[C@H]4O)[C@@H]2CC[C@]1(O[C@@H]1O[C@H](CO)[C@@H](O)[C@H](O)[C@H]1O[C@@H]1O[C@H](CO)[C@@H](O)[C@H](O)[C@H]1O)C3` [compound 315, Stevioside], the “Acceptable daily intake (ADI)” value ([6]; bw: body weight) is listed as 4 mg/kg bw/day.

In the case of `C[C@@H]1O[C@@H](O[C@H]2[C@H](Oc3cc(O)c(C(=O)CCc4ccc(O)cc4)c(O)c3)O[C@H](CO)[C@@H](O)[C@@H]2O)[C@H](O)[C@H](O)[C@H]1O` [compound 312, Naringin dihydrochalcone], the “Acceptable daily intake (ADI)” value [6] is listed as 41 mg/person/ day mg/person/day.

In the case of `C[C@H](CC[C@@H](O[C@@H]1O[C@H](CO[C@@H]2O[C@H](CO)[C@@H](O)[C@H](O)[C@H]2O)[C@@H](O)[C@H](O)[C@H]1O[C@@H]1O[C@H](CO)[C@@H](O)[C@H](O)[C@H]1O)C(C)(C)O)[C@H]1CC[C@@]2(C)[C@@H]3CC=C4[C@@H](CC[C@H](O[C@@H]5O[C@H](CO[C@@H]6O[C@H](CO)[C@@H](O)[C@H](O)[C@H]6O)[C@@H](O)[C@H](O)[C@H]5O)C4(C)C)[C@]3(C)[C@H](O)C[C@]12C` [compound 319, Mogroside V], the “Acceptable daily intake (ADI)” value ([6]; bw: body weight) is listed as 0-2.5 mg/kg bw/day.
